Where two headings read alike, the source gives them in different places.
Key:
TYK2-JH2 domain = biological target: T1, TYK2-JH2 domain (Homo sapiens, UniProt P29597); assay: Binding activity test for JH2 domain of TYK2 (Tb-antibody/tracer FRET)
T1 construct: JAK1-JH2 domain or TYK2-JH2 domain enzyme in assay buffer
Procedure: Binding Activity test for JH2 domain of JAK1 and TYK2 […] Add 8μL/well in echo source plate, echo will add 75nL/well with 3-fold serial dilution for 11 points in assay plate. 75nL DMSO for high control and low control. […] For low control, add 5μL/well assay buffer. And then spin down at 1000rpm and centrifuge for 30 seconds. After enzyme system prepared, add 5μL of Tb-antibody solution into each well of assay plate. Spin down at 1000 rpm and centrifuge for 30sec. After Tb-antibody added, also add 5μL of tracer into the assay plate. Spin down at 1000rpm and centrifuge for 30sec. Incubate for […] at 25°C firstly and then continue to incubate the plate at 4°C overnight. Read by envision in FRET mode. The Luminescence value was recorded by a multi-label reader Envision (PerkinElmer). […] Table 2. IC50 on JH2 domain activity (nM)

[1] = system: Ba/F3-FL-TYK2-P760L cells; assay: Anti-proliferative assay in engineered Ba/F3 cells (Cell-Titer Glo, 72 h); assay type: cell-based; conditions: concentration that causes 50% growth inhibition, read-out: Baf3-FL-T2P760L
Procedure: Dimerization domain of Tel protein fused with JAK kinase domain was permanently transduced into Ba/F3 cells, whose proliferation is dependent on JAK activity in the absence of IL-3 induction. These engineered Ba/F3-FL-TYK2-P760L cells were used to monitor JAK inhibitory activities of the compounds in the cellular. Ba/F3 cells were cultured in RPMI-1640 (Corning) containing 10% fetal bovine serum. Cells were seeded at 2000/well of white flat bottom 96-well plates. The well containing medium only was used as background control. After 24h growth, cells were treated with compounds. The test compounds were dissolved in DMSO to a stock concentration of 20 mM. 3-fold serially diluted compounds for 9 concentrations with top concentration of 20 µM was added into the each well. The final DMSO concentration was 0.1%. The cells continued to grow at 37°C in 5% CO2 for 72 h after compound treatment. The viability was measured by cellular ATP determination using the Cell-Titer Glo luciferase reagent (Promega). The Luminescence value was recorded by a multi-label reader Envision (PerkinElmer). Inhibition Rate was calculated relative to vehicle (DMSO) treated control wells using following formula: % Inhibition = 100−(RLU_compound−RLU_blank)/(RLU_control−RLU_blank) × 100% [formula] wherein • RLU_compound = the relative light unit of cells treated with test compounds • RLU_blank = the relative light unit of medium with DMSO only • RLU_control = the relative light unit of cells treated with DMSO only
Table 4. Ba/F3-FL-TYK2-P760L Cells IC50 Values of Exemplary Compounds

[2] = JH2 domain enzyme; 60 min at 25°C, then 4°C overnight; read-out: TYK2 JH2 Binding IC50
[3] = Mus musculus, BaF3, 72 h, 72 h compound treatment

T1 sequence (P29597 589-875 limits assumed): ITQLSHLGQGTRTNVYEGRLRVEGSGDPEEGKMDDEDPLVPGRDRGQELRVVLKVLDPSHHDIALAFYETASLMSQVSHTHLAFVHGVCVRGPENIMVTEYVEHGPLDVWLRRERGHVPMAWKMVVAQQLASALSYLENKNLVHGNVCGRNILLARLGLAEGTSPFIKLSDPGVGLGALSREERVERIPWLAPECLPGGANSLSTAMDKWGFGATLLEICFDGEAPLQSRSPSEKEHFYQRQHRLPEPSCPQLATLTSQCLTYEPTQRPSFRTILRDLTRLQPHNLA

SMILES	IC50 (TYK2-JH2 domain; [2]) [nM]	IC50 [1, 3] [nM]	IC50 ([1]; 72 h compound treatment) [nM]	IC50 (TYK2-JH2 domain; read-out: TYK2 JH2 Binding IC50; JH2 domain enzyme; 60 min at 25°C, then 4°C overnight) [nM]	IC50 ([1]; Mus musculus, BaF3, 72 h compound treatment) [nM]
COC(=O)c1cnc(NC(=O)C2CC2)cc1Nc1nn(C(F)(F)F)c2ccc(C(OC)C(F)(F)F)c(OC)c12 (stereo not drawn) [Example 163, Methyl 6-(cyclopropanecarboxamido)-4-((4-methoxy-5-(2,2,2-trifluoro-1-methoxyethyl)-1-(trifluoromethyl)-1H-indazol-3-yl)amino)nicotinate]	0.488	56.1	–	–	–
COC(=O)c1cnc(NC(=O)C2CC2)cc1Nc1nn(C)c2ccc(C(OC)C(C)(F)F)c(OC)c12 (single isomer, unassigned) [Example 115A, Methyl (S*)-6-(cyclopropanecarboxamido)-4-((5-(2,2-difluoro-1-methoxypropyl)-4-methoxy-1-methyl-1H-indazol-3-yl)amino)nicotinate]	0.119	9.83	–	–	–
COC(=O)c1cnc(NC(=O)C2CC2)cc1Nc1nn(C)c2ccc([C@H](OC)C(C)OC)c(OC)c12 (stereo partly drawn) [Example 166, Methyl 6-(cyclopropanecarboxamido)-4-((5-((1S)-1,2-dimethoxypropyl)-4-methoxy-1-methyl-1H-indazol-3-yl)amino)nicotinate]	1.11	113	–	–	–
COC(=O)c1cnc(NC(=O)[C@@H]2C[C@@H]2F)cc1Nc1nn(C)c2ccc([C@H](OC)C(F)(F)F)c(OC)c12 [Example 76, Methyl 6-((1S,2S)-2-fluorocyclopropane-1-carboxamido)-4-((4-methoxy-1-methyl-5-((S)-2,2,2-trifluoro-1-methoxyethyl)-1H-indazol-3-yl)amino)nicotinate]	0.09	3.49	–	–	–
COCCn1nc(Nc2cc(NC(=O)C3CC3)ncc2C(=O)OC)c2c(OC)c(C(OC)C(F)(F)F)ccc21 (stereo not drawn) [Example 78, Methyl 6-(cyclopropanecarboxamido)-4-((4-methoxy-1-(2-methoxyethyl)-5-(2,2,2-trifluoro-1-methoxyethyl)-1H-indazol-3-yl)amino)nicotinate]	0.17	5.26	–	–	–
COC(=O)c1cnc(NC(=O)C2CC2)cc1Nc1nn(C)c2ccc(C(OC)C3CC3)c(OC)c12 (stereo not drawn) [Example 114, Methyl 6-(cyclopropanecarboxamido)-4-((5-(cyclopropyl(methoxy)methyl)-4-methoxy-1-methyl-1H-indazol-3-yl)amino)nicotinate]	0.209	21.9	–	–	–
[2H]C([2H])([2H])OC(c1ccc2c(c(Nc3cc(NC(=O)C4CC4)ncc3C(=O)OC)nn2CCOC)c1OC)C(F)(F)F (single isomer, unassigned) [Example 157A, Methyl (S*)-6-(cyclopropanecarboxamido)-4-((4-methoxy-1-(2-methoxyethyl)-5-(2,2,2-trifluoro-1-methoxyethyl)-1H-indazol-3-yl)amino)nicotinate]	0.095	–	2.51	–	–
[2H]C([2H])([2H])NC(=O)c1cnc(NC(=O)C2CC2)cc1Nc1nn(C)c2ccc([C@H](OC)C(F)(F)F)c(OC([2H])([2H])[2H])c12 [Example 152, (S)-6-(cyclopropanecarboxamido)-4-((4-(methoxy-d3)-1-methyl-5-(2,2,2-trifluoro-1-methoxyethyl)-1H-indazol-3-yl)amino)-N-(methyl-d3)nicotinamide]	0.071	0.284	–	–	–
[2H]C([2H])([2H])O[C@@H](c1ccc2c(c(Nc3cc(NC(=O)C4CC4)ncc3C(=O)NC)nn2C)c1OC)C(F)(F)F [Example 151, (5)-6-(cyclopropanecarboxamido)-4-((4-methoxy-1-methyl-5-(2,2,2-trifluoro-1-(methoxy-d3)ethyl)-1H-indazol-3-yl)amino)-N-methylnicotinamide]	–	–	–	0.053	0.213
[2H]C([2H])([2H])CC(=O)c1cnc(NC(=O)C2CC2)cc1Nc1nn(C)c2ccc(C#N)c(OC)c12 [Example 127, N-(4-((5-cyano-4-methoxy-1-methyl-1H-indazol-3-yl)amino)-5-(propanoyl-3,3,3-d3)pyridin-2-yl)cyclopropanecarboxamide]	0.256	52.3	–	–	–
C/C=C(\F)c1cnc(NC(=O)C2CC2)cc1Nc1nn(C)c2ccc(C(O)C(F)(F)F)c(OC)c12 (stereo not drawn) [Example 130, (Z)-N-(5-(1-fluoroprop-1-en-1-yl)-4-((4-methoxy-1-methyl-5-(2,2,2-trifluoro-1-hydroxyethyl)-1H-indazol-3-yl)amino)pyridin-2-yl)cyclopropanecarboxamide]	0.688	157	–	–	–
COC(=O)c1cnc(NC(=O)C2CC2)cc1Nc1nn(C)c2ccc(C(C)OC)c(OC)c12 (stereo not drawn) [Example 112, Methyl 6-(cyclopropanecarboxamido)-4-((4-methoxy-5-(1-methoxyethyl)-1-methyl-1H-indazol-3-yl)amino)nicotinate]	0.162	11.4	–	–	–
COC(=O)c1cnc(NC(=O)C2CC2)cc1Nc1nn(C)c2ccc(Cl)c(OC)c12 [Example 137, Methyl 4-((5-chloro-4-methoxy-1-methyl-1H-indazol-3-yl)amino)-6-(cyclopropanecarboxamido)nicotinate]	0.377	99.8	–	–	–
COC(=O)c1cnc(Nc2ccc(F)cn2)cc1Nc1nn(C)c2ccc(C(OC)C(F)(F)F)c(OC)c12 (stereo not drawn) [Example 142, Methyl 6-((5-fluoropyridin-2-yl)amino)-4-((4-methoxy-1-methyl-5-(2,2,2-trifluoro-1-methoxyethyl)-1H-indazol-3-yl)amino)nicotinate]	0.185	12	–	–	–
CONC(=O)c1cnc(NC(=O)C2CC2)cc1Nc1nn(C)c2ccc(C(OC)C(F)(F)F)c(OC)c12 (stereo not drawn) [Example 73, 6-(Cyclopropanecarboxamido)-N-methoxy-4-((4-methoxy-1-methyl-5-(2,2,2-trifluoro-1-methoxyethyl)-1H-indazol-3-yl)amino)nicotinamide]	0.14	7.56	–	–	–
COC(=O)c1cnc(NC(=O)[C@@H]2C[C@@H]2F)cc1Nc1nn(C)c2ccc(C(OC)C(C)(F)F)c(OC)c12 (stereo partly drawn) [Example 116, Methyl 4-((5-(2,2-difluoro-1-methoxypropyl)-4-methoxy-1-methyl-1H-indazol-3-yl)amino)-6-((1S,2S)-2-fluorocyclopropane-1-carboxamido)nicotinate]	0.188	4.65	–	–	–
COC(=O)c1cnc(NC(=O)C2CC2)cc1Nc1nn(C)c2ccc(C3(C#N)CC3)c(OC)c12 [Example 162, Methyl 4-((5-(1-cyanocyclopropyl)-4-methoxy-1-methyl-1H-indazol-3-yl)amino)-6-(cyclopropanecarboxamido)nicotinate]	0.261	26.6	–	–	–
COC(=O)c1cnc(NC(=O)C2CC2)cc1Nc1cccc(-c2cnn(C)n2)c1OC [Example 63, Methyl 6-(cyclopropanecarboxamido)-4-((2-methoxy-3-(2-methyl-2H-1,2,3-triazol-4-yl)phenyl)amino)nicotinate]	0.285	48.4	–	–	–
COC(=O)c1cnc(NC(=O)C2CC2)cc1Nc1nn(C)c2ccc(C3COCCO3)c(OC)c12 (stereo not drawn) [Example 160, Methyl 4-((5-(1,4-dioxan-2-yl)-4-methoxy-1-methyl-1H-indazol-3-yl)amino)-6-(cyclopropanecarboxamido)nicotinate]	0.709	119	–	–	–
COC(=O)c1cnc(NC(=O)C2CC2)cc1Nc1nn(C)c2ccc(C(OC)C(C)(F)F)c(OC)c12 (stereo not drawn) [Example 115, Methyl 6-(cyclopropanecarboxamido)-4-((5-(2,2-difluoro-1-methoxypropyl)-4-methoxy-1-methyl-1H-indazol-3-yl)amino)nicotinate]	0.182	5.58	–	–	–
[2H]C([2H])([2H])CC(=O)c1cnc(NC(=O)C2CC2)cc1Nc1nn(C)c2ccc(Cl)c(OC)c12 [Example 147, N-(4-((5-chloro-4-methoxy-1-methyl-1H-indazol-3-yl)amino)-5-(propanoyl-3,3,3-d3)pyridin-2-yl)cyclopropanecarboxamide]	0.146	23.8	–	–	–

Reference: patent publication EP4813463A2, “TYK2 INHIBITORS AND COMPOSITIONS AND METHODS THEREOF” (Lynk Pharmaceuticals Co. Ltd., priority 2023, dated 2024)
